Earlier results, collected in PMC7904743, “WIDOCK: a reactive docking protocol for virtual screening of covalent inhibitors” (Journal of Computer-Aided Molecular Design, 2021).
Like-named read-outs stand apart in the source and are kept apart here.

Key:
OTUB2 = conditions: experimental actives if % labeling higher than 50%, cited from earlier work
NUDT7 = conditions: protein labeling at 200 μM; experimental actives if % labeling higher than 50%; cited from earlier work
[1] = thiol reactivity, cited from earlier work
[2] = natural log of average rate constant k
[3] = natural logarithm of average rate constant
[4] = natural log of average kinetic rate constant
[5] = natural log of average rate constant

Structure (SMILES) | OTUB2 % labeling (OTUB2) | NUDT7 % labeling (NUDT7) | ln(avg k) [1, 2] | ln(avg k) [1, 3] | OTUB2 % labeling (OTUB2; OTUB2 protein labeling) | ln(avg k) [1, 4] | ln(avg k) [1, 5]
COc1cc2c(cc1OC)CN(C(=O)CCl)CC2 [PCM-0102317, COc1cc2c(cc1OC)CN(C(=O)CCl)CC2] | 14% | 10% | -14.822 | -14.822 |  |  | 
CN(Cc1ccc(Br)cc1)C(=O)CCl [PCM-0102401, CN(Cc1ccc(Br)cc1)C(=O)CCl] | 0% | 58% | -15.733 | -15.733 |  |  | 
COC(=O)C1CN(C(=O)CCl)c2ccccc2O1 (stereo not shown) [PCM-0102880, COC(=O)C1CN(C(=O)CCl)c2ccccc2O1] |  | 0% |  |  | 11% | -17.563 | -17.563
CN(C)C(=O)c1cccc(NC(=O)CCl)c1 [PCM-0102345, CN(C)C(=O)c1cccc(NC(=O)CCl)c1] | 0% | 10% | -15.488 | -15.488 |  |  | 
CC(NC(=O)CCl)C1CC1 (stereo not shown) [PCM-0102157, CC(NC(=O)CCl)C1CC1] | 10% | 0% | -17.112 | -17.112 |  |  | 
CN(Cc1nc2ccccc2s1)C(=O)CCl [PCM-0102988, CN(Cc1nc2ccccc2s1)C(=O)CCl] |  | 30% |  |  | 0% | -15.687 | -15.687
O=C(CCl)Nc1ccccc1 [PCM-0102658, O=C(CCl)Nc1ccccc1] | 0% | 0% | -16.281 | -16.281 |  |  | 
CC1(C)CCCN1C(=O)CCl [PCM-0103060, CC1(C)CCCN1C(=O)CCl] |  | 0% |  |  | 0% | -15.914 | -15.914
C=CCNC(=O)NC(=O)CCl [PCM-0102709, C=CCNC(=O)NC(=O)CCl] | 0% | 0% |  | -16.210 |  |  | -16.210
CC(C)C(C)(C#N)NC(=O)CCl (stereo not shown) [PCM-0102626, CC(C)C(C)(C#N)NC(=O)CCl] | 0% | 0% | -15.951 | -15.951 |  |  | 
O=C(CCl)NC1CCCC1 [PCM-0102250, O=C(CCl)NC1CCCC1] | 0% | 0% | -16.419 | -16.419 |  |  | 
Cc1ccc(NC(=O)CCl)cc1Cl [PCM-0102208, Cc1ccc(NC(=O)CCl)cc1Cl] | 46% | 19% | -15.859 | -15.859 |  |  | 
CC(NC(=O)CCl)C(=O)N(C)C (stereo not shown) [PCM-0102754, CC(NC(=O)CCl)C(=O)N(C)C] |  | 0% |  |  | 0% | -16.933 | -16.933
Cc1ccc(C2=NN(C(=O)CCl)C(c3ccco3)C2)o1 (stereo not shown) [PCM-0102102, Cc1ccc(C2=NN(C(=O)CCl)C(c3ccco3)C2)o1] | 0% | 20% | -14.412 | -14.412 |  |  | 
O=C(CCl)Nc1ccc(F)cc1F [PCM-0103004, O=C(CCl)Nc1ccc(F)cc1F] |  | 0% |  |  | 26% | -15.968 | -15.968
Cc1ccc(CNC(=O)CCl)cc1F [PCM-0102959, Cc1ccc(CNC(=O)CCl)cc1F] |  | 0% |  |  | 50% | -16.344 | -16.344
O=C(CCl)Nc1cc(Cl)ccc1Cl [PCM-0102288, O=C(CCl)Nc1cc(Cl)ccc1Cl] | 0% | 6% | -16.095 | -16.095 |  |  | 
CC1(C)C(=O)Nc2ccccc2N1C(=O)CCl [PCM-0102546, CC1(C)C(=O)Nc2ccccc2N1C(=O)CCl] | 32% | 18% | -15.068 | -15.068 |  |  | 
O=C(CCl)Nc1cccnc1 [PCM-0102653, O=C(CCl)Nc1cccnc1] | 0% | 0% | -16.863 | -16.863 |  |  | 
O=C(CCl)N1CCN(Cc2ccccc2F)CC1 [PCM-0102387, O=C(CCl)N1CCN(Cc2ccccc2F)CC1] | 32% | 0% | -15.308 | -15.308 |  |  | 
COCC(=O)NNC(=O)CCl [PCM-0103070, COCC(=O)NNC(=O)CCl] |  | 0% |  |  | 0% | -17.475 | -17.475
O=C(CCl)N1CCN(c2ccc(O)cc2)CC1 [PCM-0102357, O=C(CCl)N1CCN(c2ccc(O)cc2)CC1] | 0% | 0% | -15.487 | -15.487 |  |  | 

Structure (SMILES) | OTUB2 % labeling (OTUB2) | NUDT7 % labeling (NUDT7) | ln(avg k) [1, 2] | ln(avg k) [1, 3] | OTUB2 % labeling (OTUB2; OTUB2 protein labeling) | ln(avg k) [1, 4] | ln(avg k) [1, 5]
CC1CCN(C(=O)CCl)c2ccccc2S1 (stereo not shown) [PCM-0102216, CC1CCN(C(=O)CCl)c2ccccc2S1] | 0% | 32% | -16.224 | -16.224 |  |  | 
O=C(CCl)N1CCN(c2ccccc2Cl)CC1 [PCM-0102297, O=C(CCl)N1CCN(c2ccccc2Cl)CC1] | 0% | 35% | -14.978 | -14.978 |  |  | 
COC(=O)CNC(=O)CCl [PCM-0102906, COC(=O)CNC(=O)CCl] |  | 0% |  |  | 6% | -17.517 | -17.517
O=C(CCl)NNC(=O)C1CC1 [PCM-0102776, O=C(CCl)NNC(=O)C1CC1] |  | 0% |  |  | 23% | -17.370 | -17.370
CC1Cc2cc(S(N)(=O)=O)ccc2N1C(=O)CCl (stereo not shown) [PCM-0102207, CC1Cc2cc(S(N)(=O)=O)ccc2N1C(=O)CCl] | 0% | 7% | -15.427 | -15.427 |  |  | 
CC(NC(=O)CCl)c1ccc(Cl)cc1Cl (stereo not shown) [PCM-0102212, CC(NC(=O)CCl)c1ccc(Cl)cc1Cl] | 18% | 54% | -16.295 | -16.295 |  |  | 
Cc1ccc(CN(C)C(=O)CCl)c(C)c1 [PCM-0102552, Cc1ccc(CN(C)C(=O)CCl)c(C)c1] | 0% | 19% | -16.104 | -16.104 |  |  | 
O=C(CCl)Nc1ccccc1C(=O)O [PCM-0102307, O=C(CCl)Nc1ccccc1C(=O)O] | 0% | 0% | -17.138 | -17.138 |  |  | 
O=C(CCl)N1CCCC1c1cccs1 (stereo not shown) [PCM-0102393, O=C(CCl)N1CCCC1c1cccs1] | 0% | 36% | -15.246 | -15.246 |  |  | 
CCc1nc(NC(=O)CCl)sc1C [PCM-0102231, CCc1nc(NC(=O)CCl)sc1C] | 0% | 33% | -15.238 | -15.238 |  |  | 
Cc1ccc(CN(C)C(=O)CCl)o1 [PCM-0102399, Cc1ccc(CN(C)C(=O)CCl)o1] | 0% | 5% | -15.728 | -15.728 |  |  | 
CC(C)NC(=O)NC(=O)CCl [PCM-0102504, CC(C)NC(=O)NC(=O)CCl] | 0% | 0% | -16.238 | -16.238 |  |  | 
CC(C)c1ccc(NC(=O)CCl)cc1 [PCM-0102532, CC(C)c1ccc(NC(=O)CCl)cc1] | 33% | 18% | -15.987 | -15.987 |  |  | 
O=C(CCl)Nc1cc([N+](=O)[O-])ccc1Cl [PCM-0102366, O=C(CCl)Nc1cc([N+](=O)[O-])ccc1Cl] | 27% | 20% | -15.888 | -15.888 |  |  | 
CC(=O)Nc1ccc(NC(=O)CCl)c(C(F)(F)F)c1 [PCM-0102895, CC(=O)Nc1ccc(NC(=O)CCl)c(C(F)(F)F)c1] |  | 0% |  |  | 0% | -16.611 | -16.611
CC(C)N1CCC(NC(=O)CCl)CC1 [PCM-0102748, CC(C)N1CCC(NC(=O)CCl)CC1] |  | 0% |  |  | 0% | -15.792 | -15.792
CC(C)(C)C(NC(=O)CCl)c1cccs1 (stereo not shown) [PCM-0102773, CC(C)(C)C(NC(=O)CCl)c1cccs1] |  | 9% |  |  | 0% | -16.457 | -16.457
CN(Cc1cc(Br)cs1)C(=O)CCl [PCM-0103081, CN(Cc1cc(Br)cs1)C(=O)CCl] |  | 0% |  |  | 0% | -15.601 | -15.601
Cc1nc(-c2ccc(C)c(NC(=O)CCl)c2)n[nH]1 [PCM-0103052, Cc1nc(-c2ccc(C)c(NC(=O)CCl)c2)n[nH]1] |  | 12% |  |  | 9% | -16.586 | -16.586
COc1ccc(NC(=O)CCl)cc1Cl [PCM-0102652, COc1ccc(NC(=O)CCl)cc1Cl] | 24% | 12% | -15.680 | -15.680 |  |  | 
CN(C(=O)CCl)c1ccc([N+](=O)[O-])cc1 [PCM-0102669, CN(C(=O)CCl)c1ccc([N+](=O)[O-])cc1] | 0% | 14% | -15.479 | -15.479 |  |  | 
